Laboratory results taken from ChEMBL document CHEMBL1201862, “PubChem BioAssay data set” (2004).
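Each compound was tested at five concentrations against cells in 96-well plates for 48 hours. The concentration for 50% growth inhibition is given as GI50.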 Activity calls are given as the source filed them. Rule as the data show it: active = GI50 up to about 1.1 µM and inactive = higher.

How the values were obtained:
Assay in all cases: NCI anticancer screen, dose series, 48 h
K562 = tested on: K562
TK-10 = tested on: TK-10
SK-MEL-5 = tested on: SK-MEL-5
NCI/ADR-RES = tested on: NCI/ADR-RES
T47D = tested on: T47D
OVCAR-8 = tested on: OVCAR-8
MCF7 = tested on: MCF7
SNB-75 = tested on: SNB-75
MDA-MB-231 = tested on: MDA-MB-231
SF-295 = tested on: SF-295
SW-620 = tested on: SW-620
HL-60 = tested on: HL-60
OVCAR-3 = tested on: OVCAR-3
HOP-62 = tested on: HOP-62
SR = tested on: SR
IGROV-1 = tested on: IGROV-1
SK-MEL-28 = tested on: SK-MEL-28
HCT-116 = tested on: HCT-116
NCI-H460 = tested on: NCI-H460
OVCAR-4 = tested on: OVCAR-4

Cc1cc(NC(=O)NC(=O)c2ccccc2NC(=O)CN(C)C)ccc1Oc1ncc(Br)cn1
GI50 (K562): 2 µM (inactive)
GI50 (TK-10): 21.6 µM (inactive)
GI50 (SK-MEL-5): 1.45 µM (inactive)
GI50 (NCI/ADR-RES): 1.05 µM (active)
GI50 (T47D): > 100 µM (inactive)
GI50 (OVCAR-8): 6.84 µM (inactive)
GI50 (MCF7): 0.809 µM (active)
GI50 (SNB-75): 1.89 µM (inactive)
GI50 (MDA-MB-231): 1.95 µM (inactive)
GI50 (SF-295): 0.748 µM (active)
GI50 (SW-620): 2.02 µM (inactive)
GI50 (HL-60): 0.658 µM (active)
GI50 (OVCAR-3): 1.04 µM (active)
GI50 (HOP-62): 2.76 µM (inactive)
GI50 (SR): 3.24 µM (inactive)
GI50 (IGROV-1): 6.27 µM (inactive)
GI50 (SK-MEL-28): 14.9 µM (inactive)
GI50 (HCT-116): 1.85 µM (inactive)
GI50 (NCI-H460): 0.78 µM (active)
GI50 (OVCAR-4): 71.3 µM (inactive)

O=C(CC(C(=O)c1ccsc1)c1ccsc1)c1ccsc1 (stereo unspecified)
GI50 (K562): 54.6 µM (inactive)
GI50 (TK-10): > 100 µM (inactive)
GI50 (SK-MEL-5): 43.5 µM (inactive)
GI50 (NCI/ADR-RES): 32.1 µM (inactive)
GI50 (T47D): 25.5 µM (inactive)
GI50 (OVCAR-8): > 100 µM (inactive)
GI50 (MCF7): 70.6 µM (inactive)
GI50 (SNB-75): 56.5 µM (inactive)
GI50 (MDA-MB-231): > 100 µM (inactive)
GI50 (SF-295): 73.6 µM (inactive)
GI50 (SW-620): > 100 µM (inactive)
GI50 (HL-60): 35.2 µM (inactive)
GI50 (HOP-62): > 100 µM (inactive)
GI50 (SR): 36.5 µM (inactive)
GI50 (IGROV-1): > 100 µM (inactive)
GI50 (SK-MEL-28): 82.8 µM (inactive)
GI50 (HCT-116): 43.4 µM (inactive)
GI50 (NCI-H460): 60 µM (inactive)
GI50 (OVCAR-4): 62.1 µM (inactive)

CCCCCCCCCCC(C(=O)O)C1(C(=O)O)CCC(=O)O1 (stereo unspecified)
GI50 (K562): > 100 µM (inactive)
GI50 (TK-10): > 100 µM (inactive)
GI50 (NCI/ADR-RES): > 100 µM (inactive)
GI50 (T47D): > 100 µM (inactive)
GI50 (OVCAR-8): > 100 µM (inactive)
GI50 (MCF7): > 100 µM (inactive)
GI50 (SNB-75): > 100 µM (inactive)
GI50 (MDA-MB-231): > 100 µM (inactive)
GI50 (SF-295): > 100 µM (inactive)
GI50 (SW-620): > 100 µM (inactive)
GI50 (HL-60): 90.8 µM (inactive)
GI50 (OVCAR-3): > 100 µM (inactive)
GI50 (HOP-62): > 100 µM (inactive)
GI50 (SR): > 100 µM (inactive)
GI50 (IGROV-1): > 100 µM (inactive)
GI50 (SK-MEL-28): > 100 µM (inactive)
GI50 (HCT-116): > 100 µM (inactive)
GI50 (NCI-H460): > 100 µM (inactive)
GI50 (OVCAR-4): 43.2 µM (inactive)

C1CCCN(NC2=NCCO2)CC1
GI50 (K562): > 100 µM (inactive)
GI50 (TK-10): > 100 µM (inactive)
GI50 (SK-MEL-5): > 100 µM (inactive)
GI50 (NCI/ADR-RES): > 100 µM (inactive)
GI50 (T47D): > 100 µM (inactive)
GI50 (OVCAR-8): > 100 µM (inactive)
GI50 (MCF7): > 100 µM (inactive)
GI50 (SNB-75): > 100 µM (inactive)
GI50 (MDA-MB-231): > 100 µM (inactive)
GI50 (SF-295): > 100 µM (inactive)
GI50 (SW-620): > 100 µM (inactive)
GI50 (HL-60): > 100 µM (inactive)
GI50 (OVCAR-3): > 100 µM (inactive)
GI50 (HOP-62): > 100 µM (inactive)
GI50 (SR): > 100 µM (inactive)
GI50 (IGROV-1): > 100 µM (inactive)
GI50 (HCT-116): > 100 µM (inactive)
GI50 (NCI-H460): > 100 µM (inactive)
GI50 (OVCAR-4): > 100 µM (inactive)

Clc1ccc(NCc2nnc(COc3ccc(OCc4nnc(CNc5ccc(Cl)cc5)o4)c(Cl)c3)o2)cc1
GI50 (TK-10): 56.9 µM (inactive)
GI50 (SK-MEL-5): 5.7 µM (inactive)
GI50 (NCI/ADR-RES): 5.68 µM (inactive)
GI50 (T47D): > 100 µM (inactive)
GI50 (OVCAR-8): 62.7 µM (inactive)
GI50 (MCF7): 17.5 µM (inactive)
GI50 (MDA-MB-231): 15.7 µM (inactive)
GI50 (SF-295): 20.7 µM (inactive)
GI50 (SW-620): 38.2 µM (inactive)
GI50 (HL-60): 3.52 µM (inactive)
GI50 (OVCAR-3): 29.7 µM (inactive)
GI50 (HOP-62): > 100 µM (inactive)
GI50 (SR): 0.303 µM (active)
GI50 (IGROV-1): 17.2 µM (inactive)
GI50 (SK-MEL-28): 75.3 µM (inactive)
GI50 (HCT-116): > 100 µM (inactive)
GI50 (NCI-H460): 42.6 µM (inactive)

O=C(/C=C/c1cccs1)c1ccc([N+](=O)[O-])cc1
GI50 (K562): 66.1 µM (inactive)
GI50 (TK-10): > 100 µM (inactive)
GI50 (SK-MEL-5): > 100 µM (inactive)
GI50 (NCI/ADR-RES): 83.4 µM (inactive)
GI50 (T47D): > 100 µM (inactive)
GI50 (OVCAR-8): > 100 µM (inactive)
GI50 (MCF7): 61.7 µM (inactive)
GI50 (SNB-75): 77.8 µM (inactive)
GI50 (MDA-MB-231): > 100 µM (inactive)
GI50 (SF-295): 90.8 µM (inactive)
GI50 (SW-620): > 100 µM (inactive)
GI50 (HL-60): 83.2 µM (inactive)
GI50 (HOP-62): > 100 µM (inactive)
GI50 (SR): 65.8 µM (inactive)
GI50 (IGROV-1): > 100 µM (inactive)
GI50 (SK-MEL-28): > 100 µM (inactive)
GI50 (HCT-116): 58.1 µM (inactive)
GI50 (NCI-H460): > 100 µM (inactive)
GI50 (OVCAR-4): > 100 µM (inactive)

Cc1cc(S(=O)(=O)N/C(=N/N)NCCc2ccccc2)c(S)cc1Cl
GI50 (K562): 30.6 µM (inactive)
GI50 (TK-10): 39.4 µM (inactive)
GI50 (SK-MEL-5): 19.2 µM (inactive)
GI50 (NCI/ADR-RES): 22.9 µM (inactive)
GI50 (T47D): 18.1 µM (inactive)
GI50 (OVCAR-8): 18.9 µM (inactive)
GI50 (MCF7): 32.4 µM (inactive)
GI50 (SNB-75): 25.6 µM (inactive)
GI50 (MDA-MB-231): 29.6 µM (inactive)
GI50 (SW-620): 24 µM (inactive)
GI50 (HL-60): 44.1 µM (inactive)
GI50 (OVCAR-3): 24.5 µM (inactive)
GI50 (HOP-62): > 10 µM (inactive)
GI50 (SR): 29.9 µM (inactive)
GI50 (IGROV-1): 36 µM (inactive)
GI50 (SK-MEL-28): 20.7 µM (inactive)
GI50 (HCT-116): 25.1 µM (inactive)
GI50 (OVCAR-4): 22.9 µM (inactive)
